Source: patent publication US20200131669A1, “CYCLIC PEPTIDE COMPOUND HAVING HIGH MEMBRANE PERMEABILITY, AND LIBRARY CONTAINING SAME” (Chugai Seiyaku Kabushiki Kaisha, priority 2017, published 2020)
Starred links: 1 amine or outer side, 2 acyl side, 3 side chain; linkers in the order of their positions; H or OH if unused. Positions of bridges follow the written chain, without caps; N, C: chain ends. Non-standard residues stand in square brackets, D forms with d. Residues, ends and D or L forms follow the SMILES beside them. *: point of attachment. X13 = O=C([C@@H]1C[C@H](N2CCC(F)(F)CC2)CN1[*:1])[*:2]; Phe(4-CF3) = N[C@@H](Cc1ccc(C(F)(F)F)cc1)C(=O)O; NMePhe(3-Cl) = CN[C@@H](Cc1cccc(Cl)c1)C(=O)O; X8 = O=C(CN(CCN1CCC(F)(F)CC1)[*:1])[*:2]; hNle(7,7-F2) = N[C@@H](CCCCC(F)F)C(=O)O; NMehPhe = CN[C@@H](CCc1ccccc1)C(=O)O; NMeF = CN[C@@H](Cc1ccccc1)C(=O)O; NMeGABA = CN(CCCC(=O)[*:2])[*:1]; NMeI = CC[C@H](C)[C@H](NC)C(=O)O; hPhe = N[C@@H](CCc1ccccc1)C(=O)O; Butyl(3-Me,3-OH) = CC(C)(O)CC*; NMeL = CN[C@@H](CC(C)C)C(=O)O; NMeV = CN[C@H](C(=O)O)C(C)C; NMeA = CN[C@@H](C)C(=O)O; Piperidide = C1CCN(*)CC1; Me2NCH2CH2 = CN(C)CC*; NBuGly = CCCCNCC(=O)O; NEtG = CCNCC(=O)O; Sar = CNCC(=O)O; tBu = CC(C)(C)*; Propyl = CCC*

Assay: Caco-2 membrane permeability, improved method as used in the following Examples (96-well, 20 to 24 h preincubation)
Assay type: in vitro ADME
Settings: human, Caco-2, Caco-2
Procedure, shortened: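 Papp (cm/sec) was derived from LC/MS of basal samples collected 180 min after apical dosing in FaSSIF/HBSS pH 6.0 with 1% DMSO, against a basal HBSS pH 7.4 receiver containing 4% BSA. Three-week Caco-2 cultures were first preincubated with compound in DMEM+FaSSIF at 37 °C for 20–24 h.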

Row | SMILES | Papp A→B at 180 min
1 | CC(C)C[C@@H]1NC(=O)[C@H](Cc2ccccc2)N(C)C(=O)[C@H](CC(C)C)N(C)C(=O)[C@H](CC(C)C)NC(=O)[C@H](C)N(C)C(=O)C[C@@H](C(=O)N2CCCCC2)NC(=O)[C@H](CC(C)C)N(C)C(=O)CN(C)C(=O)[C@H]([C@@H](C)O)NC(=O)CN(CCN2CCC(F)(F)CC2)C(=O)[C@H](Cc2ccccc2)N(C)C1=O [pd456] ([NMeA]L[NMeL][NMeF]L[NMeF][X8]T[Sar][NMeL]D-Piperidide; lactam N-11) | 5 ×10⁻⁶ cm/s
2 | CC(C)C[C@H]1NC(=O)C[C@@H](C(=O)N2CCCCC2)NC(=O)[C@H](C)N(C)C(=O)[C@H](CC(C)C)N(C)C(=O)[C@H](COC(C)(C)C)NC(=O)[C@H](CC(C)C)N(C)C(=O)CN(C)C(=O)[C@H]([C@@H](C)O)NC(=O)[C@H](CC(C)C)N(C)C(=O)[C@H](CCc2ccccc2)NC(=O)[C@H](Cc2ccccc2)N(C)C1=O [pd314] ([dL][NMeF][hPhe][NMeL]T[Sar][NMeL]S(tBu)[NMeL][NMeA]D-Piperidide; lactam N-11) | 1.4 ×10⁻⁶ cm/s
3 | CC(C)C[C@@H]1NC(=O)[C@H](Cc2ccccc2)N(C)C(=O)[C@@H](C(C)C)NC(=O)C[C@@H](C(=O)N2CCCCC2)NC(=O)[C@H](C(C)C)N(C)C(=O)[C@H](Cc2ccccc2)N(C)C(=O)[C@H](CCCCC(F)F)NC(=O)[C@H](CC(C)C)N(C)C(=O)CN(C)C(=O)[C@H]([C@@H](C)O)NC(=O)[C@H](CC(C)C)N(C)C1=O [pd332] ([dV][NMeF]L[NMeL]T[Sar][NMeL][hNle(7,7-F2)][NMeF][NMeV]D-Piperidide; lactam N-11) | 1.5 ×10⁻⁶ cm/s
4 | CCCCN1CC(=O)N(C)[C@@H](CC(C)C)C(=O)N[C@@H](COCCN(C)C)C(=O)N(C)[C@@H](Cc2ccccc2)C(=O)N(C)[C@@H](C(C)C)C(=O)N[C@H](C(=O)N2CCCCC2)CC(=O)N[C@H](CC(C)C)C(=O)N(C)[C@@H](Cc2ccccc2)C(=O)N[C@@H](CC(C)C)C(=O)N(C)[C@@H](CC(C)C)C(=O)N[C@@H]([C@@H](C)O)C1=O [pd51] ([dL][NMeF]L[NMeL]T[NBuGly][NMeL]S(Me2NCH2CH2)[NMeF][NMeV]D-Piperidide; lactam N-11) | 0.07 ×10⁻⁶ cm/s
5 | CC[C@H](C)[C@H]1C(=O)N[C@@H]([C@@H](C)O)C(=O)N(C)CC(=O)N(C)[C@@H](CC(C)C)C(=O)N[C@H](C(=O)N2CCCCC2)CC(=O)N(C)[C@@H](C)C(=O)N[C@@H](CC(C)C)C(=O)N(C)[C@@H](CC(C)C)C(=O)N(C)[C@@H](Cc2ccccc2)C(=O)N[C@@H](CCCCC(F)F)C(=O)N(C)[C@@H](Cc2ccccc2)C(=O)N1C [pd335] ([NMeA]L[NMeL][NMeF][hNle(7,7-F2)][NMeF][NMeI]T[Sar][NMeL]D-Piperidide; lactam N-11) | 2 ×10⁻⁶ cm/s
6 | CC(C)C[C@H]1C(=O)N[C@@H](COC(C)(C)C)C(=O)N(C)[C@@H](Cc2ccccc2)C(=O)N(C)[C@@H](CC(C)C)C(=O)N[C@H](C(=O)N2CCCCC2)CC(=O)N2C[C@@H](N3CCC(F)(F)CC3)C[C@H]2C(=O)N(C)[C@@H](Cc2cccc(Cl)c2)C(=O)N[C@@H](C(C)C)C(=O)N(C)[C@@H](C(C)C)C(=O)N[C@@H]([C@@H](C)O)C(=O)N(C)CC(=O)N1C [pd461] ([X13][NMePhe(3-Cl)]V[NMeV]T[Sar][NMeL]S(tBu)[NMeF][NMeL]D-Piperidide; lactam N-11) | 1.4 ×10⁻⁶ cm/s
7 | CC(C)C[C@@H]1NC(=O)[C@H](Cc2ccccc2)N(C)C(=O)[C@H](CC(C)C)N(C)C(=O)[C@H](COCCC(C)(C)O)NC(=O)[C@H](C)N(C)C(=O)C[C@@H](C(=O)N2CCCCC2)NC(=O)[C@H](CC(C)C)N(C)C(=O)CN(C)C(=O)[C@H]([C@@H](C)O)NC(=O)[C@H](CC(C)C)N(C)C(=O)[C@H](CCc2ccccc2)N(C)C1=O [pd436] ([NMeA]S(Butyl(3-Me,3-OH))[NMeL][NMeF]L[NMehPhe][NMeL]T[Sar][NMeL]D-Piperidide; lactam N-11) | 1.3 ×10⁻⁶ cm/s
8 | CCCOC[C@@H]1NC(=O)[C@H](CC(C)C)N(C)C(=O)CN(C)C(=O)[C@H]([C@@H](C)O)NC(=O)[C@H](CC(C)C)N(C)C(=O)[C@H](CC(C)C)NC(=O)[C@H](Cc2ccccc2)N(C)C(=O)[C@@H](C(C)C)NC(=O)C[C@@H](C(=O)N2CCCCC2)NC(=O)[C@H](CC(C)C)N(C)C(=O)[C@H](Cc2ccccc2)N(C)C1=O [pd325] ([dV][NMeF]L[NMeL]T[Sar][NMeL]S(Propyl)[NMeF][NMeL]D-Piperidide; lactam N-11) | 2.2 ×10⁻⁶ cm/s
9 | CC(C)C[C@H]1C(=O)N[C@@H](COC(C)(C)C)C(=O)N(C)[C@@H](C)C(=O)N(C)[C@@H](CC(C)C)C(=O)N[C@H](C(=O)N2CCCCC2)CC(=O)N[C@H](C)C(=O)N(C)[C@@H](Cc2ccccc2)C(=O)N[C@@H](COc2ccccc2Cl)C(=O)N(C)[C@@H](CC(C)C)C(=O)N[C@@H]([C@@H](C)O)C(=O)N(C)CC(=O)N1C [pd340] | 1.2 ×10⁻⁶ cm/s

Same assay, conditions: human, Caco-2, Caco-2 (cm/sec)

Row | SMILES | Papp A→B at 180 min
10 | CCN1CC(=O)N[C@@H]([C@@H](C)O)C(=O)N(C)[C@@H](CC(C)C)C(=O)N(C)[C@@H](CC(C)C)C(=O)N[C@@H](Cc2ccc(C(F)(F)F)cc2)C(=O)N[C@H](C(=O)N2CCCCC2)CC(=O)N[C@@H](COC(C)(C)C)C(=O)N(C)[C@@H](CC(C)C)C1=O [pd143] (S(tBu)[NMeL][NEtG]T[NMeL][NMeL][Phe(4-CF3)]D-Piperidide; lactam N-8) | 1.1 ×10⁻⁶ cm/s
11 | CC[C@H](C)[C@H]1C(=O)N[C@@H](Cc2ccc(O)cc2)C(=O)N(C)CC(=O)N(C)[C@@H](CC(C)C)C(=O)N[C@H](C(=O)N2CCCCC2)CC(=O)N(C)[C@@H](C)C(=O)N[C@@H](CC(C)C)C(=O)N(C)[C@@H](C)C(=O)N(C)[C@@H](Cc2ccccc2)C(=O)N[C@@H](C(C)C)C(=O)N(C)[C@@H](C)C(=O)N1C [pd116] ([NMeA]L[NMeA][NMeF]V[NMeA][NMeI]Y[Sar][NMeL]D-Piperidide; lactam N-11) | 0.14 ×10⁻⁶ cm/s
12 | CC[C@H](C)[C@@H]1NC(=O)[C@H](CC(C)C)N(C)C(=O)CCCN(C)C(=O)C[C@@H](C(=O)N2CCCCC2)NC(=O)[C@H](CC(C)C)N(C)C(=O)[C@H](C)N(C)C(=O)[C@H](Cc2ccc(O)cc2)NC(=O)[C@H](CC(C)C)N(C)C(=O)[C@H](COC(C)(C)C)NC(=O)[C@H](CC(C)C)N(C)C(=O)[C@H](Cc2ccccc2)N(C)C1=O [pd129] ([NMeGABA][NMeL]I[NMeF][NMeL]S(tBu)[NMeL]Y[NMeA][NMeL]D-Piperidide; lactam N-11) | 0.16 ×10⁻⁶ cm/s
13 | CC(C)C[C@H]1C(=O)N(C)[C@@H](CC(C)C)C(=O)N[C@@H](COC(C)(C)C)C(=O)N(C)[C@@H](C(C)C)C(=O)N[C@H](C(=O)N2CCCCC2)CC(=O)N(C)CC(=O)N(C)[C@@H](Cc2ccccc2)C(=O)N[C@@H](Cc2ccc(C(F)(F)F)cc2)C(=O)N(C)[C@@H](CC(C)C)C(=O)N[C@@H]([C@@H](C)O)C(=O)N(C)CC(=O)N1C [pd140] ([Sar][NMeF][Phe(4-CF3)][NMeL]T[Sar][NMeL][NMeL]S(tBu)[NMeV]D-Piperidide; lactam N-11) | 2.5 ×10⁻⁶ cm/s
